Experimental data reported in PubChem BioAssay AID1963446 (Molecular Pharmacology Branch, DTP, NCI, 2024).
“And” between values parts separate entries of the source, which are not always exact repeats. Identical values can stand only once. Each block holds one compound with its values, some of them ahead of it.

Test system: 993429-296-R-J1-PDC complex spheroid growth, percent test/control
Test: Anticancer human tumor 993429-296-R-J1-PDC patient-derived uterine sarcoma cell line growth inhibition [Asc]
Settings: for viability, T/C: stronger effect = lower value
Experimental: Multicellular complex tumor spheroid response to apoptosis pathway targeting inhibitors Alrizomadlin, Pelcitoclax, and Dasminapant in combination with a variety of drugs and investigational agents in selected tumor cell lines
The MDM2 inhibitor alrizomadlin, the Bcl-2/Bcl-xL inhibitor pelcitoclax, and the IAPs inhibitor dasminapant were evaluated both individually and in combination with standard of care and investigational anticancer small molecules within a complex spheroid model of solid tumors. . Complex spheroids include a stromal component modeled by human endothelial cells (HUVEC) and fibroblasts modeled by human mesenchymal stem cells (MSCs). The concentration ranges selected for each drug and investigational agent were based upon clinically achievable concentrations if the clinical Cmax of the agent was known.
Compounds. The drugs and investigational agents: alrizomadlin (APG-115; NSC831270), pelcitoclax (APG-1252; NSC835773), dasminapant (APG-1387;NSC834197), TAK-243 (NSC785004), copanlisib (NSC809693), olaparib (NSC753686), talazoparib (NSC767125), cobimetinib (NSC 768068), eltanexor (KPT-8602, NSC 794443), abemaciclib (NSC 768073), sotorasib (NSC818433), adagrasib (NSC 831453), MRTX-1133 (NSC 836407), Iadademestat (ORY1001, NSC 806812), and RMC-4630 (NSC839698), were obtained from the NCI Developmental Therapeutics Program Chemical Repository. The FDA-approved anticancer drug set is available from the Developmental Therapeutics Program at https://dtp.cancer.gov/organization/dscb/obtaining/available plates.htm. […] The stock solutions were prepared in dimethyl sulfoxide (DMSO, Sigma-Aldrich, St. Louis, MO, cat. D2650) at 800-fold the tested concentration and stored at -70 degrees C prior to their use. All drugs and investigational agents were tested over a range starting from a high concentration at or near the clinical Cmax and decreasing in half-log increments. If the clinical Cmax for an agent had not been determined, the highest concentration tested was 10 microM.
The patient-derived cancer (PDC) cell lines include five colon adenocarcinomas: 186277-243-T-J2-PDC, 616215-338-R-J1-PDC, 439559-082-T-J2-PDC, 463943-066-T-J2-PDC, and 519858-162-T-J1-PDC; three pancreatic carcinomas: 323965-272-R-J2-PDC, 521955-158-R6-J3-PDC, and 521955-158-R2-J5-PDC; two uterine sarcomas: 327498-152-R-J2-PDC and 993429-296-R-J1-PDC; two rhabdomyosarcomas: 755483-174-R-J1-PDC and 772245-204-R-J1-PDC; two soft tissue sarcomas: 126254-015-R-J1-PDC and 494315-158-R-J1-PDC; two malignant fibrous histiocytomas: 317291-083-R-J1-PDC and 596521-263-R-J1-PDC; two breast carcinomas: 171881-019-R-J1-PDC and 885512-296-R-J2-PDC; and one ovarian carcinoma: 6556581-035-R-J-PDC were obtained from the NCI PDMR, (https://pdmr.cancer.gov). The established cell lines HSSY-2 synovial sarcoma (RRID:CVCL 8719), SYO-1 synovial sarcoma (RRID:CVCL_7146), MPNST malignant peripheral neural sheath tumor were obtained from the Sloan Kettering Institute. The following established cell lines were purchased from the American Type Culture Collection (ATCC, Manassas, VA), Sor the received from the NCI repository:, PANC-1 pancreatic carcinoma (CRL-1469, RRID:CVCL_0480), OVCAR-5 ovarian carcinoma (RRID:CVCL_1628), OVCAR-8 ovarian carcinoma (RRID:CVCL_1629), , MCF-7 breast carcinoma (CRL-12584, RRID:CVCL_0031), MDA-MB-231 breast carcinoma (CRL-12532, RRID:CVCL_0062), NCI-H1876 small cell lung carcinoma (CRL-5902, RRID:CVCL_1503), NCI-H510A small cell lung carcinoma (HTB-184, RRID:CVCL_1565), NCI-H1417 (CRL-5869, RRID:CVCL_1469), and NCI-H196 small cell lung carcinoma (CRL-5823, RRID:CVCL_1509). Dr. Peter Houghton (Greehey Children's Cancer Research Institute, University of Texas Health Science Center, San Antonio, TX) provided Rh-18 rhabdomyosarcoma (RRID:CVCL_1659). Pooled donor human umbilical vein endothelial cells (HUVEC, Lonza, cat. CC-2519) and human mesenchymal stem cells (hMSC, Lonza, cat. PT-2501) were purchased from Lonza (Walkersville, MD).
Cell Culture. […]
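Note: spheroids exposed to compounds for seven days.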

- IC50 (curve of first compound, second compound 0.03 µM): 42.6 nM
- IC50 (curve of first compound, second compound 0.0949 µM): 64.6 nM
- IC50 (curve of first compound, second compound 0.3 µM): 42.4 nM
- IC50 (curve of first compound, second compound 0.949 µM): 50.1 nM
- IC50 (curve of first compound, second compound 3 µM): 19.3 nM
SMILES: O=C(c1ccc(F)c(F)c1Nc1ccc(I)cc1F)N1CC(O)([C@@H]2CCCCN2)C1 + CCN1C(C(=O)NC23CCC(C(=O)O)(CC2)CC3)C(c2cccc(Cl)c2F)C2(C(=O)Nc3cc(Cl)ccc32)C12CCCCC2
- viability, T/C (second compound 0.03 µM, first compound 0.00316 µM): 98%
- viability, T/C (second compound 0.03 µM, first compound 0.01 µM): 72.2%
- viability, T/C (second compound 0.03 µM, first compound 0.0316 µM): 58%
- viability, T/C (second compound 0.03 µM, first compound 0.1 µM): 38.7%
- viability, T/C (second compound 0.03 µM, first compound 0.316 µM): 8.47%
- viability, T/C (second compound 0.03 µM, first compound 1 µM): 1.77%
- viability, T/C (second compound 0.0949 µM, first compound 0.00316 µM): 80.2%
- viability, T/C (second compound 0.0949 µM, first compound 0.01 µM): 87.7%
- viability, T/C (second compound 0.0949 µM, first compound 0.0316 µM): 66%
- viability, T/C (second compound 0.0949 µM, first compound 0.1 µM): 39.8%
- viability, T/C (second compound 0.0949 µM, first compound 0.316 µM): 8.87%
- viability, T/C (second compound 0.0949 µM, first compound 1 µM): 1.19%
- viability, T/C (second compound 0.3 µM, first compound 0.00316 µM): 85.8%
- viability, T/C (second compound 0.3 µM, first compound 0.01 µM): 74.7%
- viability, T/C (second compound 0.3 µM, first compound 0.0316 µM): 61.1%
- viability, T/C (second compound 0.3 µM, first compound 0.1 µM): 22.3%
- viability, T/C (second compound 0.3 µM, first compound 0.316 µM): 8.15%
- viability, T/C (second compound 0.3 µM, first compound 1 µM): 2.9%
- viability, T/C (second compound 0.949 µM, first compound 0.00316 µM): 86.8%
- viability, T/C (second compound 0.949 µM, first compound 0.01 µM): 67.3%
- viability, T/C (second compound 0.949 µM, first compound 0.0316 µM): 66.3%
- viability, T/C (second compound 0.949 µM, first compound 0.1 µM): 30.9%
- viability, T/C (second compound 0.949 µM, first compound 0.316 µM): 8.19%
- viability, T/C (second compound 0.949 µM, first compound 1 µM): 2.6%
- viability, T/C (second compound 3 µM, first compound 0.00316 µM): 74.9%
- viability, T/C (second compound 3 µM, first compound 0.01 µM): 64.4%
- viability, T/C (second compound 3 µM, first compound 0.0316 µM): 38.3%
- viability, T/C (second compound 3 µM, first compound 0.1 µM): 20.6%
- viability, T/C (second compound 3 µM, first compound 0.316 µM): 5.52%
- viability, T/C (second compound 3 µM, first compound 1 µM): 0.67%

- IC50 (curve of compound): 20 nM and 21.5 nM and 31.6 nM
SMILES: COc1c(OCCCN2CCOCC2)ccc2c3n(c(=NC(=O)c4cnc(N)nc4)nc12)CCN3
- viability, T/C (compound 0.00316 µM): 91.3% and 101% and 95.5%
- viability, T/C (compound 0.01 µM): 76.7% and 74.9% and 85.9%
- viability, T/C (compound 0.0316 µM): 32.1% and 39% and 47.7%
- viability, T/C (compound 0.1 µM): 7.79% and 8.14% and 20.2%
- viability, T/C (compound 0.316 µM): 3.91% and 3.64% and 6.96%
- viability, T/C (compound 1 µM): 1.4% and 1.43% and 2.5%
